Data taken from patent US20220348590A1, “CYCLOOXYGENASE-2 INHIBITORS AND USES THEREOF” (The Board Institute, Inc., priority 2019, published 2022).
pIC50: −log10 of the molar value. Read-outs that look alike come from different tables or passages of the source.

Molecular target: T1, human recombinant COX2 (hCOX2) (UniProt P35354)
T1 sequence (P35354 1-604): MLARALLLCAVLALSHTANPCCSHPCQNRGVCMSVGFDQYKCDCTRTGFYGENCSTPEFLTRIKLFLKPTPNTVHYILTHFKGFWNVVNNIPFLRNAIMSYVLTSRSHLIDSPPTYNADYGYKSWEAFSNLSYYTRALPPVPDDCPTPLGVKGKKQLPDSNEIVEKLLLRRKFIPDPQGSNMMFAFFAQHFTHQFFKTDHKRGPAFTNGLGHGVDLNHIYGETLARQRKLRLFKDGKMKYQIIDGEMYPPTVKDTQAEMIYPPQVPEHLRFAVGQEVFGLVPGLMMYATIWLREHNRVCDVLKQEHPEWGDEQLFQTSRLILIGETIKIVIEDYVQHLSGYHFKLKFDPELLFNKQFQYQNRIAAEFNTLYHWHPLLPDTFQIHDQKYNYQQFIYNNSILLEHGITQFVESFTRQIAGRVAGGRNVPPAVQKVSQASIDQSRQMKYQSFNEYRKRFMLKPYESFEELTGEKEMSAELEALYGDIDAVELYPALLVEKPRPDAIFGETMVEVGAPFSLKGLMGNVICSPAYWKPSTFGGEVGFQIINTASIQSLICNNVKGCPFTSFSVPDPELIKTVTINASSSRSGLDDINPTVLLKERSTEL
Experiment: LCMS-based COX2 enzymatic inhibition assay (PGE2 quantification)
Type: biochemical
Set-up: COX2 2 minutes pge2/pge2d4 area ratio Avg; other: 2 minutes; readout pge2/pge2d4 area ratio; average; COX2 2 minutes pge2/pge2d4 area ratio Avg; LLE; average LLE; COX2 2 minutes pge2 area (counts) Avg; readout pge2 area (counts); other: 2 min; "ovine COX2 (oCOX2), human recombinant COX2 (hCOX2)"
Settings: for COX2 2 minutes pge2/pge2d4 area ratio Avg. LLE / COX2 2 minutes pge2 area (counts) Avg. LLE / COX2 10 minutes pge2 area (counts) Avg. LLE: average LLE; for pIC50: average
Outline: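 Ovine COX-1 (0.1 μg) or human recombinant COX2 (0.2 μg) in 100 mM Tris.HCl pH 8.0 with hematin and epinephrine, preincubated with inhibitor 10 min at 37 °C. Reaction with 5 μM arachidonic acid stopped after 2 min with HCl; PGE2 quantified by LC-MS-MS. IC50 from 12 concentrations in triplicate.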

[1] = 2 minutes, readout pge2/pge2d4 area ratio
[2] = 2 minutes, readout pge2/pge2d4 area ratio, read-out: COX2 2 minutes pge2/pge2d4 area ratio Avg. IC50
[3] = 2 minutes, readout pge2 area (counts)
[4] = 2 minutes, readout pge2 area (counts), read-out: COX2 2 minutes pge2 area (counts) Avg. IC50
[5] = 10 minutes, readout pge2 area (counts)
[6] = 10 minutes, readout pge2 area (counts), read-out: COX2 10 minutes pge2 area (counts) Avg. IC50
[7] = read-out: COX2 2 minutes pge2/pge2d4 area ratio Avg. IC50 (microM), 2 minutes, readout pge2/pge2d4 area ratio

Row | COX2 2 minutes pge2/pge2d4 area ratio Avg. LLE [1] | pIC50 [2] | COX2 2 minutes pge2 area (counts) Avg. LLE [3] | pIC50 [4] | Structure (SMILES) | COX2 10 minutes pge2 area (counts) Avg. LLE [5] | pIC50 [6] | pIC50 [7] | pIC50 (read-out: COX2 2 minutes pge2/pge2d4 area ratio Avg. IC50 (microM), 2 minutes, readout pge2/pge2d4 area ratio, 2 min)
1 | 4.811 | 6.40 | 4.888 | 6.46 | CS(=O)(=O)c1ccc(-c2cncc(NC[C@H]3CCCS3)n2)cc1 (single isomer, unassigned) [Compound 162] |  |  |  | 
2 | 3.529 | 5.46 | 3.534 | 5.46 | CS(=O)(=O)c1ccc(-c2cccc(NCc3ccco3)n2)cn1 [Compound 250] |  |  |  | 
3 |  |  |  |  | CS(=O)(=O)c1ccc(-c2nc(NCc3cccs3)no2)cc1 [Compound 327] |  |  | 5.28 | 
4 | 5.134 | 7.21 | 5.087 | 7.17 | CS(=O)(=O)c1ccc(-c2cnc(N)c(OCc3cccs3)n2)cc1 [Compound 86] |  |  |  | 
5 | 3.7158 | 6.34 | 3.9817 | 6.49 | C[C@@H](Nc1cncc(-c2ccc(S(C)(=O)=O)cc2)n1)c1cccs1 [Compound 173] | 4.808 | 7.42 |  | 
6 | 4.116 | 6.02 | 4.04 | 5.91 | CS(=O)(=O)c1ccc(-c2cncc(OC[C@H]3CCCS3)n2)cc1 (single isomer, unassigned) [Compound 198] |  |  |  | 
7 | 2.102 | 6.61 | 2.132 | 6.70 | CS(=O)(=O)c1ccc(-c2ccc3ccn(-c4ccccc4)c3n2)cc1 [Compound 146] |  |  |  | 
8 | 4.414 | 6.12 | 4.524 | 6.22 | CS(=O)(=O)c1ccc(-c2cncc(NC(=O)c3cccs3)n2)cc1 [Compound 192] |  |  |  | 
9 | 5.259 | 6.37 | 5.249 | 6.42 | COc1ncc(NCc2cccnc2)nc1-c1ccc(S(C)(=O)=O)cc1 [Compound 166] |  |  |  | 
10 | 2.8258 | 6.67 | 2.75 | 6.51 | CS(=O)(=O)c1ccc(-c2nc(OCc3cccs3)cc3ncccc23)cc1 [Compound 140] |  |  |  | 
11 |  |  |  |  | CS(=O)(=O)c1ccc(-c2cc(OCc3ccco3)cnn2)cc1 [Compound 323] |  |  | 5.28 | 
12 | 1.917 | 5.38 | 2.088 | 5.49 | COc1cc(S(C)(=O)=O)ccc1-c1cccc(NCc2cccs2)n1 [Compound 259] |  |  |  | 
13 | 4.057 | 6.57 | 4.033 | 6.54 | COc1ccc(NCc2ccco2)nc1-c1ccc(S(C)(=O)=O)cc1 [Compound 149] |  |  |  | 
14 | 4.543 | 6.60 | 4.9085 | 6.95 | CS(=O)(=O)c1ccc(-c2cncc(OCc3nccs3)n2)cc1 [Compound 147] |  |  |  | 
15 | 6.031 | 6.53 | 6.197 | 6.76 | COc1ncc(NCc2ccon2)nc1-c1ccc(S(C)(=O)=O)cc1 [Compound 152] |  |  |  | 
16 | 5.19 | 6.25 | 5.2357 | 6.28 | Cn1ccc(COc2cncc(-c3ccc(S(C)(=O)=O)cc3)n2)n1 [Compound 181] |  |  |  | 
17 | 4.192 | 7.30 | 4.109 | 7.22 | CS(=O)(=O)c1ccc(-c2cncc(NCc3cccs3)c2)cc1 [Compound 79] |  |  |  | 

Row | COX2 2 minutes pge2/pge2d4 area ratio Avg. LLE [1] | pIC50 [2] | COX2 2 minutes pge2 area (counts) Avg. LLE [3] | pIC50 [4] | Structure (SMILES) | COX2 10 minutes pge2 area (counts) Avg. LLE [5] | pIC50 [6] | pIC50 [7] | pIC50 (read-out: COX2 2 minutes pge2/pge2d4 area ratio Avg. IC50 (microM), 2 minutes, readout pge2/pge2d4 area ratio, 2 min)
18 | 5.784 | 6.84 | 5.809 | 6.86 | COc1ncc(NCc2cccs2)nc1-c1ccc(S(C)(=O)=O)cn1 [Compound 128] |  |  |  | 
19 | 2.992 | 5.73 | 2.918 | 5.65 | CS(=O)(=O)c1ccc(-c2cncc(/C=C/c3cccs3)n2)cc1 [Compound 223] |  |  |  | 
20 | 4.417 | 5.34 | 4.469 | 5.39 | CS(=O)(=O)c1ccc(-c2cncc(NC[C@H]3CCCO3)n2)cc1 [Compound 263] |  |  |  | 
21 |  | 7.39 |  | 7.33 | CS(=O)(=O)c1ccc(-c2cccc(Oc3ccccc3)n2)cc1 [Compound 70] |  |  |  | 
22 | 1.429 | 5.65 | 1.483 | 5.70 | C[C@@H](Oc1cccc(-c2ccc(S(C)(=O)=O)cc2)n1)c1cccs1 (single isomer, unassigned) [Compound 229] |  |  |  | 
23 |  | 5.56 |  | 5.51 | CS(=O)(=O)c1ccc(-c2cc(NCc3ccoc3)ncn2)cc1 [Compound 239] |  |  |  | 
24 | 3.614 | 6.99 | 3.525 | 6.96 | C[C@@H](Nc1cccc(-c2ccc(S(C)(=O)=O)cc2)n1)c1ccoc1 (single isomer, unassigned) [Compound 112] |  |  |  | 
25 |  | 6.41 |  | 6.47 | CS(=O)(=O)c1ccc(-c2cncc(NCc3ccco3)c2)cc1 [Compound 161] |  |  |  | 
26 | 4.792 | 6.36 | 4.782 | 6.36 | CS(=O)(=O)c1ccc(-c2cncc(NC[C@@H]3CCCS3)n2)cc1 (single isomer, unassigned) [Compound 167] |  |  |  | 
27 |  |  |  |  | CN1CCC(Nc2cncc(-c3ccc(S(C)(=O)=O)cc3)n2)CC1 [Compound 298] |  |  | 5.28 | 
28 | 5.231 | 7.25 | 5.428 | 7.39 | COc1ncc(OCc2ccco2)nc1-c1ccc(S(C)(=O)=O)cc1 [Compound 81] |  |  |  | 
29 | 3.99 | 7.04 | 3.918 | 6.98 | CS(=O)(=O)c1ccc(-c2cccc(NCc3nccs3)n2)cc1 [Compound 105] |  |  |  | 
30 |  |  |  |  | CS(=O)(=O)c1ccc(-n2ccc3ccc(NC(=O)c4cccs4)nc32)cc1 [Compound 311] |  |  | 5.28 | 
31 |  |  |  |  | CS(=O)(=O)c1ccc(-c2nc(NCc3cccs3)cnc2C(=O)O)cc1 [Compound 305] |  |  | 5.28 | 
32 |  |  |  |  | CS(=O)(=O)c1ccc(-c2cncc(C#Cc3cccs3)n2)cc1 [Compound 320] |  |  | 5.28 | 
33 |  | 5.60 |  | 5.67 | CS(=O)(=O)c1ccc(-c2cc(NCc3ccco3)ccn2)cc1 [Compound 235] |  |  |  | 

Row | Structure (SMILES) | COX2 2 minutes pge2/pge2d4 area ratio Avg. LLE [1] | pIC50 [2] | COX2 2 minutes pge2 area (counts) Avg. LLE [3] | pIC50 [4] | COX2 10 minutes pge2 area (counts) Avg. LLE [5] | pIC50 [6] | pIC50 [7] | pIC50 (read-out: COX2 2 minutes pge2/pge2d4 area ratio Avg. IC50 (microM), 2 minutes, readout pge2/pge2d4 area ratio, 2 min)
34 | CS(=O)(=O)c1ccc(-c2cncc(N3CCOCC3)n2)cc1 [Compound 286] | 5.044 |  |  |  | 5.772 | 6.01 | 5.28 | 
35 | CS(=O)(=O)c1ccc(-c2cccc([C@H](O)Cc3cccs3)n2)cc1 [Compound 284] | 2.424 |  | 2.424 |  |  |  | 5.28 | 
36 | CS(=O)(=O)c1ccc(-c2cncc(OCC3CC3)n2)cc1 [Compound 273] | 3.734 |  | 3.734 |  |  |  | 5.28 | 
37 | CS(=O)(=O)c1ccc(-c2cccc(C3CC3c3ccoc3)n2)cc1 (single isomer, unassigned) [Compound 314, 2-[2-(furan-3-yl)cyclopropyl]-6-(4-methanesulfonylphenyl)pyridine] |  |  | 2.024 |  |  |  |  | 5.28
38 | CS(=O)(=O)c1ccc(-c2cnc(O)c(NCc3cccs3)n2)cc1 [Compound 316] |  |  | 3.634 |  |  |  | 5.28 | 
39 | CS(=O)(=O)c1ccc(-c2cncc(OCCc3cccs3)n2)cc1 [Compound 312] |  |  | 2.744 |  |  |  | 5.28 | 
40 | CN1CC[C@@H](CNc2cncc(-c3ccc(S(C)(=O)=O)cc3)n2)C1 [Compound 306] |  |  | 4.594 |  |  |  | 5.28 | 
